Data reported in PubChem BioAssay AID2060511 (Molecular Pharmacology Branch, DTP, NCI, 2025).

Test system: 422866-222-R5-J1-PDC spheroids with HUVEC/MSC, viability
Experiment: Anticancer human tumor 422866-222-R5-J1-PDC patient-derived pancreatic adenocarcinoma cell line growth inhibition [GQUAD]
Conditions: for IC50: curve of first compound; for viability, T/C: stronger effect = lower value
Procedure, shortened: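 Viability of tumor cells grown as complex spheroids with endothelial and stromal cells, exposed to drug combinations. Top concentration at or near clinical Cmax (else 10 microM), diluted in half-log increments.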

[1] = second compound 0.0316 µM, first compound 0.0316 µM
[2] = second compound 0.0316 µM, first compound 0.1 µM
[3] = second compound 0.0316 µM, first compound 0.316 µM
[4] = second compound 0.0316 µM, first compound 1 µM
[5] = second compound 0.0316 µM, first compound 3.16 µM
[6] = second compound 0.0316 µM, first compound 10 µM
[7] = second compound 0.1 µM, first compound 0.0316 µM
[8] = second compound 0.1 µM, first compound 0.1 µM
[9] = second compound 0.1 µM, first compound 0.316 µM
[10] = second compound 0.1 µM, first compound 1 µM
[11] = second compound 0.1 µM, first compound 3.16 µM
[12] = second compound 0.1 µM, first compound 10 µM
[13] = second compound 0.316 µM, first compound 0.0316 µM
[14] = second compound 0.316 µM, first compound 0.1 µM
[15] = second compound 0.316 µM, first compound 0.316 µM
[16] = second compound 0.316 µM, first compound 1 µM
[17] = second compound 0.316 µM, first compound 3.16 µM
[18] = second compound 0.316 µM, first compound 10 µM
[19] = second compound 1 µM, first compound 0.0316 µM
[20] = second compound 1 µM, first compound 0.1 µM
[21] = second compound 1 µM, first compound 0.316 µM
[22] = second compound 1 µM, first compound 1 µM
[23] = second compound 1 µM, first compound 3.16 µM
[24] = second compound 1 µM, first compound 10 µM
[25] = second compound 3.16 µM, first compound 0.0316 µM
[26] = second compound 3.16 µM, first compound 0.1 µM
[27] = second compound 3.16 µM, first compound 0.316 µM
[28] = second compound 3.16 µM, first compound 1 µM
[29] = second compound 3.16 µM, first compound 3.16 µM
[30] = second compound 3.16 µM, first compound 10 µM
[31] = second compound 10 µM, first compound 0.0316 µM
[32] = second compound 10 µM, first compound 0.1 µM
[33] = second compound 10 µM, first compound 0.316 µM
[34] = second compound 10 µM, first compound 1 µM
[35] = second compound 10 µM, first compound 3.16 µM
[36] = second compound 10 µM, first compound 10 µM
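Further: spheroids exposed to compounds for seven days before reading.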
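Wherever viability, T/C is given: percent viability relative to DMSO vehicle control taken as 100%.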

Structure (SMILES): C=CCn1c(=O)c2cnc(Nc3ccc(N4CCN(C)CC4)cc3)nc2n1-c1cccc(C(C)(C)O)n1 + Cc1[nH]c2ccc(F)cc2c1-c1nc2c3cccnc3c3ncccc3c2[nH]1
- IC50 (second compound 0.0316 µM): > 10000 nM
- IC50 (second compound 0.1 µM): > 10000 nM
- IC50 (second compound 0.316 µM): > 10000 nM
- IC50 (second compound 1 µM): > 10000 nM
- IC50 (second compound 3.16 µM): > 10000 nM
- IC50 (second compound 10 µM): > 10000 nM
- viability, T/C [1]: 103%
- viability, T/C [2]: 110%
- viability, T/C [3]: 167%
- viability, T/C [4]: 125%
- viability, T/C [5]: 157%
- viability, T/C [6]: 91.9%
- viability, T/C [7]: 112%
- viability, T/C [8]: 101%
- viability, T/C [9]: 127%
- viability, T/C [10]: 146%
- viability, T/C [11]: 183%
- viability, T/C [12]: 107%
- viability, T/C [13]: 101%
- viability, T/C [14]: 127%
- viability, T/C [15]: 126%
- viability, T/C [16]: 130%
- viability, T/C [17]: 202%
- viability, T/C [18]: 112%
- viability, T/C [19]: 89.3%
- viability, T/C [20]: 122%
- viability, T/C [21]: 120%
- viability, T/C [22]: 121%
- viability, T/C [23]: 194%
- viability, T/C [24]: 122%
- viability, T/C [25]: 75.5%
- viability, T/C [26]: 74.5%
- viability, T/C [27]: 85.2%
- viability, T/C [28]: 117%
- viability, T/C [29]: 122%
- viability, T/C [30]: 76.9%
- viability, T/C [31]: 70.5%
- viability, T/C [32]: 51.5%
- viability, T/C [33]: 85.7%
- viability, T/C [34]: 68.5%
- viability, T/C [35]: 105%
- viability, T/C [36]: 79.3%

Structure (SMILES): CC(C)(O)C1CCC(Nc2ccc3ncc(-c4cccc(C(F)(F)F)c4)n3n2)CC1 (centres undefined) + Cc1[nH]c2ccc(F)cc2c1-c1nc2c3cccnc3c3ncccc3c2[nH]1
- IC50 (second compound 0.0316 µM): 1110 nM
- IC50 (second compound 0.1 µM): 833 nM
- IC50 (second compound 0.316 µM): 1120 nM
- IC50 (second compound 1 µM): 1490 nM
- IC50 (second compound 3.16 µM): 421 nM
- IC50 (second compound 10 µM): 531 nM
- viability, T/C [1]: 99.4%
- viability, T/C [2]: 79.8%
- viability, T/C [3]: 78.5%
- viability, T/C [4]: 50.7%
- viability, T/C [5]: 31.8%
- viability, T/C [6]: 26.9%
- viability, T/C [7]: 118%
- viability, T/C [8]: 103%
- viability, T/C [9]: 64.7%
- viability, T/C [10]: 50.9%
- viability, T/C [11]: 34.1%
- viability, T/C [12]: 29.8%
- viability, T/C [13]: 103%
- viability, T/C [14]: 99.2%
- viability, T/C [15]: 80.3%
- viability, T/C [16]: 51.1%
- viability, T/C [17]: 36.5%
- viability, T/C [18]: 29.5%
- viability, T/C [19]: 87.1%
- viability, T/C [20]: 88.4%
- viability, T/C [21]: 77.6%
- viability, T/C [22]: 55.4%
- viability, T/C [23]: 38.9%
- viability, T/C [24]: 27.1%
- viability, T/C [25]: 56%
- viability, T/C [26]: 63.5%
- viability, T/C [27]: 52.4%
- viability, T/C [28]: 39.3%
- viability, T/C [29]: 37.8%
- viability, T/C [30]: 29%
- viability, T/C [31]: 66.3%
- viability, T/C [32]: 68.3%
- viability, T/C [33]: 62%
- viability, T/C [34]: 35.1%
- viability, T/C [35]: 33.9%
- viability, T/C [36]: 26%
